Results published in patent publication US9850283B2, “Macrocyclic inhibitors of the PD-1/PD-L1 and CD80(B7-1)/PD-L1 protein/protein interactions” (BRISTOL-MYERS SQUIBB COMPANY, priority 2013, dated 2017).
Positions of bridges follow the written chain, without caps; N, C: chain ends. Non-standard residues stand in square brackets, D forms with d. Residues, ends and D or L forms follow the SMILES beside them. ξ: configuration not given here. Bta = N[C@@H](Cc1csc2ccccc12)C(=O)O; Hyp = O=C(O)[C@@H]1C[C@@H](O)CN1; NMeNle = CCCC[C@H](NC)C(=O)O; NMeA = CN[C@@H](C)C(=O)O; ξC = NC(CS)C(=O)O

Assays:
[1] = target: T1, Human PD-L1/PD-1 (Homo sapiens, UniProt Q9NZQ7); test: HTRF PD-1-Ig/PD-L1-His binding assay (human PD-L1); details: cluster symbol; read-out: HTRF IC50 cluster
T1 construct: made in house; host or cells: HEK293T
T1 sequence (Q9NZQ7 with tags, fused parts or gaps): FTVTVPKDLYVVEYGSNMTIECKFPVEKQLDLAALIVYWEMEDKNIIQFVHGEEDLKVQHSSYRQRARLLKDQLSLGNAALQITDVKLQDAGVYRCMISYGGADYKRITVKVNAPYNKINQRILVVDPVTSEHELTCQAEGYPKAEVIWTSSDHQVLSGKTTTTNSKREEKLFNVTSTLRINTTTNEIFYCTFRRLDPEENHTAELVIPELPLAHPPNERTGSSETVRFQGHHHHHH
Summary of the method: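 The time-resolved fluorescence signal comes from Eu-cryptate anti-Ig (1 nM) and APC anti-His (20 nM) antibodies bound to a PD-1-Ig/PD-L1-His complex. Both partners lack transmembrane regions.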

[2] = target: T2, LK35.2-hPD-L1 cells / PE-labeled PD-1-Ig (Homo sapiens, UniProt Q9NZQ7); test: LK35.2-hPD-L1 cell binding high-content screening assay; type: cell-based; details: cell binding assay, cell line not given; cluster symbol; read-out: CBA IC50 cluster
T2 construct: expressed in transfected cells; host or cells: LK35.2 mouse B cell line
T2 sequence (Q9NZQ7 19-290): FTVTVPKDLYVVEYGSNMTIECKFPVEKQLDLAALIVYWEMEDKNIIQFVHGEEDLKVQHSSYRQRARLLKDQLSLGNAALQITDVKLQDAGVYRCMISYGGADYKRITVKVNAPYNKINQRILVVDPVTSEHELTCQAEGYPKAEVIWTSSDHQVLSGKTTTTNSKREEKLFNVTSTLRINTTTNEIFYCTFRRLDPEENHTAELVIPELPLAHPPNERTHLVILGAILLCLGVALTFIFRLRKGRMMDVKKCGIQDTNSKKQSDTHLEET
Summary of the method: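 Mouse LK35.2 B cells stably overexpressing human PD-L1 were cultured overnight in RPMI with 10% FCS, then given compound and PE-labeled human PD-1-Ig (1 nM final) for 1 h at 37 °C. After three dPBS washes, bound fluorescence was quantified by high-content imaging.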

Compound | IC50 [1] | IC50 [2]
CCCC[C@H]1C(=O)N(C)[C@@H](CCCC)C(=O)N[C@@H](CCCNC(=N)N)C(=O)NC(C(=O)NCC(N)=O)CSCC(=O)N[C@@H](Cc2ccc(O)cc2)C(=O)N(C)[C@@H](C)C(=O)N[C@@H](CC(N)=O)C(=O)N2CCC[C@H]2C(=O)N[C@@H](Cc2cnc[nH]2)C(=O)N[C@@H](CO)C(=O)N2C[C@H](O)C[C@H]2C(=O)N[C@@H](Cc2c[nH]c3ccccc23)C(=O)N[C@@H](CO)C(=O)N[C@@H](Cc2csc3ccccc23)C(=O)N1C (stereo partly drawn) [Example 9070] ({CH2CO}-Y[NMeA]NPHS[Hyp]WS[Bta][NMeNle][NMeNle]R[ξC]G-NH2; thioether N-14) | 6.76 to 30.3 nM | 0.158 to 4.71 nM
CCCC[C@H]1C(=O)N(C)[C@@H](CCCC)C(=O)N[C@@H](CCCNC(=N)N)C(=O)NC(C(=O)NCC(N)=O)CSCC(=O)N[C@@H](Cc2ccc(O)cc2)C(=O)N(C)[C@@H](C)C(=O)N[C@@H](CC(N)=O)C(=O)N2CCC[C@H]2C(=O)N[C@@H](CO)C(=O)N[C@@H](CC(C)C)C(=O)N2C[C@H](O)C[C@H]2C(=O)N[C@@H](Cc2c[nH]c3ccccc23)C(=O)N[C@@H](CO)C(=O)N[C@@H](Cc2csc3ccccc23)C(=O)N1C (stereo partly drawn) [Example 9071] ({CH2CO}-Y[NMeA]NPSL[Hyp]WS[Bta][NMeNle][NMeNle]R[ξC]G-NH2; thioether N-14) | 0.385 to 6.74 nM | 0.158 to 4.71 nM
CCCC[C@H]1C(=O)N(C)[C@@H](CCCC)C(=O)N[C@@H](CCCNC(=N)N)C(=O)NC(C(=O)NCC(N)=O)CSCC(=O)N[C@@H](Cc2ccc(O)cc2)C(=O)N(C)[C@@H](C)C(=O)N[C@@H](CC(N)=O)C(=O)N2CCC[C@H]2C(=O)N[C@@H](CO)C(=O)N[C@@H](CC(C)C)C(=O)N2CCC[C@H]2C(=O)N[C@@H](Cc2c[nH]c3ccccc23)C(=O)N[C@@H](CO)C(=O)N[C@@H](Cc2csc3ccccc23)C(=O)N1C (stereo partly drawn) [Example 9072] ({CH2CO}-Y[NMeA]NPSLPWS[Bta][NMeNle][NMeNle]R[ξC]G-NH2; thioether N-14) | 0.385 to 6.74 nM | 0.158 to 4.71 nM
CCCC[C@H]1C(=O)N(C)[C@@H](CCCC)C(=O)N[C@@H](CCCNC(=N)N)C(=O)NC(C(=O)NCC(N)=O)CSCC(=O)N[C@@H](Cc2ccc(O)cc2)C(=O)N(C)[C@@H](C)C(=O)N[C@@H](CC(N)=O)C(=O)N2CCC[C@H]2C(=O)N[C@@H](CO)C(=O)N[C@@H](CC(C)C)C(=O)N2CCC[C@H]2C(=O)N[C@@H](Cc2c[nH]c3ccccc23)C(=O)N[C@@H](CO)C(=O)N[C@@H](Cc2c[nH]c3ccccc23)C(=O)N1C (stereo partly drawn) [Example 9073] ({CH2CO}-Y[NMeA]NPSLPWSW[NMeNle][NMeNle]R[ξC]G-NH2; thioether N-14) | 0.385 to 6.74 nM | 0.158 to 4.71 nM
CCCC[C@H]1C(=O)N(C)[C@@H](CCCC)C(=O)N[C@@H](CCCNC(=N)N)C(=O)NC(C(=O)NCC(N)=O)CSCC(=O)N[C@@H](Cc2ccc(O)cc2)C(=O)N(C)[C@@H](C)C(=O)N[C@@H](CC(N)=O)C(=O)N2CCC[C@H]2C(=O)N[C@@H](CO)C(=O)N[C@@H](CC(C)C)C(=O)N2C[C@H](O)C[C@H]2C(=O)N[C@@H](Cc2c[nH]c3ccccc23)C(=O)N[C@@H](CO)C(=O)N[C@@H](Cc2c[nH]c3ccccc23)C(=O)N1C (stereo partly drawn) [Example 9074] ({CH2CO}-Y[NMeA]NPSL[Hyp]WSW[NMeNle][NMeNle]R[ξC]G-NH2; thioether N-14) | 0.385 to 6.74 nM | 0.158 to 4.71 nM
CCCC[C@H]1C(=O)N(C)[C@@H](CCCC)C(=O)N[C@@H](CCCNC(=N)N)C(=O)NC(C(=O)N[C@@H](CO)C(N)=O)CSCC(=O)N[C@@H](Cc2ccc(O)cc2)C(=O)N(C)[C@@H](C)C(=O)N[C@@H](CC(N)=O)C(=O)N2CCC[C@H]2C(=O)N[C@@H](CO)C(=O)N[C@@H](CC(C)C)C(=O)N2C[C@H](O)C[C@H]2C(=O)N[C@@H](Cc2c[nH]c3ccccc23)C(=O)N[C@@H](CO)C(=O)N[C@@H](Cc2csc3ccccc23)C(=O)N1C (stereo partly drawn) [Example 9075] ({CH2CO}-Y[NMeA]NPSL[Hyp]WS[Bta][NMeNle][NMeNle]R[ξC]S-NH2; thioether N-14) | 0.385 to 6.74 nM | 0.158 to 4.71 nM
